{"source": "patent US20170087108A1", "about": "“METHODS OF IMPROVING PHYSIOLOGICAL CONDITIONS RELATED TO PREGNANCY THROUGH DIETARY SUPPLEMENTATION” (Natural Alternatives International, Inc., priority 2015, published 2017)", "key": {"pigs [1]": {"system": "pigs", "experiment": "Dietary supplementation of female pigs: survivability and live births per litter", "type": "in vivo", "conditions": "vs no supplementation and vs carnosine", "description": "Beta-alanine will be used as a dietary supplement for pigs.\n(§1) Beta-alanine supplementation will be provided to female pigs during pregnancy. Beta-alanine will be provided in dosages provided in concentrations and/or percentages for times described in this disclosure. Controls will be provided. Controls will include a group of female pigs given no additional supplementation beyond those currently administered during pig pregnancies. Another control group will be provided with supplementation with carnosine at dosages provided in concentrations and/or percentages for times described in this disclosure.\nas §1, with “female pigs prior to and during pregnancy.” for “female pigs during pregnancy.”\nas §1, with “pigs starting from breeding age through” for “pigs during”\nas §1, with “pigs from birth through” for “pigs during”"}, "[2]": {"conditions": "taken as a free amino acid; some individuals; cited from earlier work"}, "pigs [3]": {"system": "pigs", "conditions": "Example 2: supplementation of female pigs during pregnancy; vs no supplementation and vs carnosine", "description": "(§2) Beta-alanine will be used as a dietary supplement for pigs and chickens.\nas §1, with “pigs and female chickens” for “pigs”, “pig and chicken” for “pig”, “carnosine provided in” for “carnosine at”"}, "chickens": {"system": "chickens", "conditions": "Example 2: supplementation of female chickens during pregnancy; vs no supplementation and vs carnosine", "description": "as §2\nas §1, with “pigs and female chickens” for “pigs”, “pig and chicken” for “pig”, “carnosine provided in” for “carnosine at”"}, "[4]": {"conditions": "Example 1: supplementation during pregnancy"}, "[5]": {"conditions": "Example 3: supplementation prior to and during pregnancy"}, "[6]": {"conditions": "Example 4: supplementation from breeding age through pregnancy"}, "[7]": {"conditions": "Example 5: supplementation from birth through pregnancy"}}, "data": [{"smiles": "NCCC(=O)O", "note": "[beta-alanine]", "values": [{"measurement": "amount of live births per litter", "setting": "pigs [1]; [4]", "value": "improves"}, {"measurement": "survivability", "setting": "pigs [1]; [4]", "value": "improves"}, {"measurement": "amount of live births per litter", "setting": "pigs [1]; [5]", "value": "improves"}, {"measurement": "survivability", "setting": "pigs [1]; [5]", "value": "improves"}, {"measurement": "amount of live births per litter", "setting": "pigs [1]; [6]", "value": "improves"}, {"measurement": "survivability", "setting": "pigs [1]; [6]", "value": "improves"}, {"measurement": "amount of live births per litter", "setting": "pigs [1]; [7]", "value": "improves"}, {"measurement": "survivability", "setting": "pigs [1]; [7]", "value": "improves"}, {"measurement": "duration of flushing/tingling of the skin", "setting": "[2]", "value": "less than 60 minutes"}, {"measurement": "early development rate for piglets", "setting": "pigs [3]", "value": "improves"}, {"measurement": "early development rate for chicks", "setting": "chickens", "value": "improves"}]}]}
